Test results as given in patent publication US11472838B2, “Inhibitors of blood coagulation factor XIII” (Zedira GmbH, priority 2018, dated 2022).
Like-named read-outs stand apart in the source and are kept apart here. *1 amine or outer side, *2 acyl side, *3 side chain or, on linkers, in order; H or OH if unused. Where a SMILES comes first, the peptide text is derived from it. [ ]: non-standard residue; d: D form. The star is where a group is joined. ξ: configuration not given here. Benzoyl(2-COOH,5-NO2) = O=C(O)c1ccc([N+](=O)[O-])cc1C(=O)*; Nle(5E-ene,6-CO2Et) = CCOC(=O)/C=C/CC[C@H](N)C(=O)O; X1 = COC(=O)/C=C/CC[C@H](N[*:1])C(=O)[*:2]; Pro(4-methylene) = C=C1CN[C@H](C(=O)O)C1; X2 = O=C(O)c1cc([N+](=O)[O-])ccc1C(=O)*; Thiophene2carbonyl = O=C(c1cccs1)*; Ala(cPr) = N[C@@H](CC1CC1)C(=O)O; Thr(3ξ) = CC(O)[C@H](N)C(=O)O; Chg = N[C@H](C(=O)O)C1CCCCC1; Tle = CC(C)(C)[C@H](N)C(=O)O; Pip = O=C(O)[C@@H]1CCCCN1; NHIsopentyl = CC(C)CCN*; Cbz = O=C(OCc1ccccc1)*

What was measured:
[1] = Stability of compounds in plasma (HPLC)
Description: Further, the stability of compounds in plasma was determined as prerequisite for drug-likeness. Briefly, after spiking the chemical entities, the plasma was incubated at 37° C. At certain time points (e.g. at 15 and 120 minutes), 3 vol. cold MeOH were added to extract the compounds. After centrifugation, the supernatant was analyzed by HPLC. The half life was calculated based on the respective calibration curve.

TG2 = TG2 (Homo sapiens (Human), UniProt P21980); assay: Inhibitory activity against TG2 (isopeptidase assay), Tables 3 and 4; format: biochemical; conditions: for Selectivity: TG2 versus FXIII
Chain of TG2 (P21980 whole entry): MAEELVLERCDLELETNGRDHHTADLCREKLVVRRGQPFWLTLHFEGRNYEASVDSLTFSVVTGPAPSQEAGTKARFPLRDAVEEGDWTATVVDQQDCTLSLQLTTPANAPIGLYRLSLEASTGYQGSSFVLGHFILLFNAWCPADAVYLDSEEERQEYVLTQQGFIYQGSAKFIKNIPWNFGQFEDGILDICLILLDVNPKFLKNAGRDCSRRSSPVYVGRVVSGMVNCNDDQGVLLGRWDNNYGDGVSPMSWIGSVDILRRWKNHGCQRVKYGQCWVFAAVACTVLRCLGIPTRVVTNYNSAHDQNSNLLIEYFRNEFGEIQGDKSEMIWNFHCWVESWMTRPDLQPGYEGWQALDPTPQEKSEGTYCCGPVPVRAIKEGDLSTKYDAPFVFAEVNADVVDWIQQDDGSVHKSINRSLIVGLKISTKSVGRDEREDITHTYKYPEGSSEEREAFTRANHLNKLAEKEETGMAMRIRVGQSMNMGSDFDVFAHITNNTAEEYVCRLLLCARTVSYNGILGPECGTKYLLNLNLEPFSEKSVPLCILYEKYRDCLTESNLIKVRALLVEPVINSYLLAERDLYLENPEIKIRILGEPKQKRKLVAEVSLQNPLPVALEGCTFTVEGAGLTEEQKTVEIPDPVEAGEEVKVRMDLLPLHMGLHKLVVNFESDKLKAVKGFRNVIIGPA

FXIII = FXIII (Homo sapiens (Human), UniProt P00488); assay: Inhibitory activity against FXIII (isopeptidase assay), Tables 3 and 4; format: biochemical;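 note: FXIIIa activity read with a peptide substrate derived from the α2-antiplasmin N-terminal dodecapeptide, FXIII activated beforehand at room temperature, inhibitor-free wells with DMSO buffer as control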
Chain of FXIII (P00488 39-732): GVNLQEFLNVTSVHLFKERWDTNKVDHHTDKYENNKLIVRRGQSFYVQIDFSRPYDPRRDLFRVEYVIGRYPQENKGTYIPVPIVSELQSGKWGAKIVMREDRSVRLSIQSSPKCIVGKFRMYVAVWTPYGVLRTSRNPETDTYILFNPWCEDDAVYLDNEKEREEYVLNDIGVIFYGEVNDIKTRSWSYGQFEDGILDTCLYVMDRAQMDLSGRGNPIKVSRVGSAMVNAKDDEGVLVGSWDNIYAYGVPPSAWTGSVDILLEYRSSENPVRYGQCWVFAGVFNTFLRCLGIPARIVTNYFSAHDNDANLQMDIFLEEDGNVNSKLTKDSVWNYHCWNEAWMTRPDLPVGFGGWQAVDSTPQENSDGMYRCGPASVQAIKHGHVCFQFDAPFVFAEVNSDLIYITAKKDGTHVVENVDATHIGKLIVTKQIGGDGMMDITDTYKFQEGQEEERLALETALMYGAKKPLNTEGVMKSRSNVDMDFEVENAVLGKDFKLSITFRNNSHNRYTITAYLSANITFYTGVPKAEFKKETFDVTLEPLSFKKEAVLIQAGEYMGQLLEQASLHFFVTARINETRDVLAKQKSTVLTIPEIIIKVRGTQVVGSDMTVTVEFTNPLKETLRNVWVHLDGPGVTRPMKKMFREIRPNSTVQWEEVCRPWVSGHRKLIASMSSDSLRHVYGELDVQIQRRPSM

| Structure (SMILES) | IC50 (TG2; isopeptidase assay, Table 3, read-out: IC50 [nM] TG2) [nM] | IC50 (FXIII; isopeptidase assay, Table 3, read-out: IC50 [nM] FXIII) [nM] | Selectivity (TG2; Table 4) | IC50 (TG2; Table 4, read-out: TG2 IC50) [nM] | IC50 (FXIII; Table 4, read-out: FXIII IC50) [nM] | recovery at 2 h [1] [%] |
| --- | --- | --- | --- | --- | --- | --- |
| CCOC(=O)/C=C/CC[C@H](NC(=O)c1cccs1)C(=O)N[C@@H](CC1CC1)C(=O)N1CCC[C@H]1C(=O)N[C@@H](CC(C)C)C(=O)N[C@H](C(N)=O)C1CCCCC1 [Compound 41] (Thiophene2carbonyl-[Nle(5E-ene,6-CO2Et)][Ala(cPr)]PL[Chg]-NH2) |  |  |  |  |  | > 75 |
| C=C1C[C@@H](C(=O)N[C@@H](CC(C)C)C(=O)N[C@H](C(N)=O)C2CCCCC2)N(C(=O)[C@@H](NC(=O)[C@H](CC/C=C/C(=O)OCC)NC(=O)c2ccc([N+](=O)[O-])cc2C(=O)O)C(C)(C)C)C1 [Compound 42a] (X2-[Nle(5E-ene,6-CO2Et)][Tle][Pro(4-methylene)]L[Chg]-NH2) |  |  |  |  |  | > 75 |
| C=C1C[C@@H](C(=O)N[C@@H](CC(C)C)C(=O)N[C@H](C(N)=O)C2CCCCC2)N(C(=O)[C@@H](NC(=O)[C@H](CC/C=C/C(=O)OCC)NC(=O)c2cc([N+](=O)[O-])ccc2C(=O)O)C(C)(C)C)C1 [Compound 42b] ({Benzoyl(2-COOH,5-NO2)}-[Nle(5E-ene,6-CO2Et)][Tle][Pro(4-methylene)]L[Chg]-NH2) |  |  |  |  |  | > 75 |
| CCOC(=O)/C=C/CC[C@H](NC(=O)OCc1ccccc1)C(=O)N[C@H](C(=O)N1CCCC[C@H]1C(=O)N[C@@H](CC(C)C)C(=O)OC)C(C)C [Ref. 6, reference compound] (Cbz-[Nle(5E-ene,6-CO2Et)]V[Pip]L-OMe) | 48 | > 10000 |  |  |  |  |
| CCOC(=O)/C=C/CC[C@H](NC(=O)OCc1ccccc1)C(=O)N[C@H](C(=O)N1CCC[C@H]1C(=O)N[C@@H](CC(C)C)C(=O)N[C@H](C(N)=O)C1CCCCC1)C(C)C [Ref. 08, reference compound] (Cbz-[Nle(5E-ene,6-CO2Et)]VPL[Chg]-NH2) |  |  | 0.01 | 36 | 3650 |  |
| CCOC(=O)/C=C/CC[C@H](NC(=O)OCc1ccccc1)C(=O)N[C@@H](CCC(N)=O)C(=O)N1CCC[C@H]1C(=O)N[C@@H](CC(C)C)C(=O)N[C@H](C(N)=O)C1CCCCC1 [Ref. 09, reference compound] (Cbz-[Nle(5E-ene,6-CO2Et)]QPL[Chg]-NH2) |  |  |  | 26 | 5690 |  |
| CCOC(=O)/C=C/CC[C@H](NC(=O)OCc1ccccc1)C(=O)N[C@H](C(=O)N1CCC[C@H]1C(=O)N[C@H](C(=O)NCCC(C)C)C1CCCCC1)C(C)C [Ref. 10, reference compound] (Cbz-[Nle(5E-ene,6-CO2Et)]VP[Chg]-NHIsopentyl) |  |  | 0.02 | 176 | 8180 |  |
| CCOC(=O)/C=C/CC[C@H](NC(=O)c1cccs1)C(=O)N[C@@H](CCC(N)=O)C(=O)N1CCC[C@H]1C(=O)N[C@@H](CC(C)C)C(=O)N[C@H](C(N)=O)C1CCCCC1 [Ref. 11, reference compound] (Thiophene2carbonyl-[Nle(5E-ene,6-CO2Et)]QPL[Chg]-NH2) |  |  | 0.05 | 253 | 5360 |  |
| CCOC(=O)/C=C/CC[C@H](NC(=O)OCc1ccccc1)C(=O)N[C@H](C(=O)N1CCC[C@H]1C(=O)N[C@@H](CC(C)C)C(=O)N[C@H](C(N)=O)C1CCCCC1)C1CCCCC1 [Ref. 12, reference compound] (Cbz-[Nle(5E-ene,6-CO2Et)][Chg]PL[Chg]-NH2) |  |  | 0.05 | 345 | 6770 |  |

Further lines, with some results ahead:

| IC50 (TG2; isopeptidase assay, Table 3, read-out: IC50 [nM] TG2) [nM] | IC50 (FXIII; isopeptidase assay, Table 3, read-out: IC50 [nM] FXIII) [nM] | Selectivity (TG2; Table 4) | IC50 (TG2; Table 4, read-out: TG2 IC50) [nM] | IC50 (FXIII; Table 4, read-out: FXIII IC50) [nM] | Structure (SMILES) | recovery at 2 h [1] [%] |
| --- | --- | --- | --- | --- | --- | --- |
|  |  | 0.07 | 370 | 4980 | COC(=O)/C=C/CC[C@H](NC(=O)[C@H](CC(N)=O)NC(C)=O)C(=O)N[C@@H](CCC(=O)O)C(=O)N[C@@H](CCC(N)=O)C(=O)N[C@H](C(=O)N[C@@H](CO)C(=O)N1CCC[C@H]1C(=O)N[C@@H](CC(C)C)C(=O)N[C@H](C(=O)N[C@@H](CC(C)C)C(=O)O)C(C)O)C(C)C (stereo partly drawn) [Ref. 19, reference compound] (Ac-N[X1]EQVSPL[Thr(3ξ)]L-OH) |  |
|  |  | 0.04 | 381 | 8480 | COC(=O)/C=C/CC[C@H](NC(=O)[C@H](CC(N)=O)NC(C)=O)C(=O)N[C@@H](CCC(=O)O)C(=O)N[C@@H](CCC(N)=O)C(=O)N[C@H](C(=O)N[C@@H](CO)C(=O)N1CCC[C@H]1C(=O)N[C@@H](CC(C)C)C(=O)N[C@H](C(=O)O)C(C)O)C(C)C (stereo partly shown) [Ref. 20, reference compound] (Ac-N[X1]EQVSPL[Thr(3ξ)]-OH) |  |
|  |  |  | 421 | > 10 | COC(=O)/C=C/CC[C@H](NC(=O)[C@H](CC(N)=O)NC(C)=O)C(=O)N[C@@H](CCC(=O)O)C(=O)N[C@@H](CCC(N)=O)C(=O)N[C@H](C(=O)N[C@@H](CO)C(=O)N1CCC[C@H]1C(=O)N[C@@H](CC(C)C)C(=O)O)C(C)C [Ref. 21, reference compound] (Ac-N[X1]EQVSPL-OH) |  |
|  |  |  |  | > 10 | CCC(CC)CNC(=O)Cn1cccc(NC(=O)[C@H](CC/C=C/C(=O)OC)NC(=O)c2cncn2C)c1=O [Ref. 25] |  |
